In series [1] the test system is mouse model of warfarin‐associated ICH. On the set-up: method as in PMID 21127298. The note with it: cited from earlier work.
The test system of series [2] is collagenase‐induced mouse model of ICH. On the set-up: method as in PMID 15800021. The following applies: 100 mg/kg intraperitoneally for 48 hours (not with 1 mg/kg); cited from earlier work.
Another series has as its system MMP‐10. On the set-up: method as in PMID 25686022. The note with it: previously reported; read-out: MMP Inhibitory Activity (IC50), MMP‐10; cited from earlier work.
A further series concerns the target T1, MMP‐7 (Homo sapiens, UniProt P09237).
T1 construct: GenScript (contract testing)
T1 sequence (P09237 95-267): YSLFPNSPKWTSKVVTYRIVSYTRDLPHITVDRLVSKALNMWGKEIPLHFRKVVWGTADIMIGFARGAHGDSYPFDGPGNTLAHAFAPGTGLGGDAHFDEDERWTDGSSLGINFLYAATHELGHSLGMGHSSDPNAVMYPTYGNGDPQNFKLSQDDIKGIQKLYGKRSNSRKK
Put plainly: MMP enzyme activity assay. The class given is biochemical. The method, then: Protease stock solutions (10 mmol/L) were diluted with assay buffer to make final test solutions containing no more than 2.0% DMSO. The samples were dispensed into plates; substrate was added and read with PHERAstar PLUS (BMG Labtech, Ortenberg, Germany) plate reader.

The next series concerns MMP‐3. On the set-up: method as in PMID 25686022. The following applies: previously reported; read-out: MMP Inhibitory Activity (IC50), MMP‐3; cited from earlier work.
The target in a further series is T2, MMP‐12 (Homo sapiens, UniProt P39900).
T2 construct: GenScript (contract testing)
T2 sequence (P39900 106-470, species assumed): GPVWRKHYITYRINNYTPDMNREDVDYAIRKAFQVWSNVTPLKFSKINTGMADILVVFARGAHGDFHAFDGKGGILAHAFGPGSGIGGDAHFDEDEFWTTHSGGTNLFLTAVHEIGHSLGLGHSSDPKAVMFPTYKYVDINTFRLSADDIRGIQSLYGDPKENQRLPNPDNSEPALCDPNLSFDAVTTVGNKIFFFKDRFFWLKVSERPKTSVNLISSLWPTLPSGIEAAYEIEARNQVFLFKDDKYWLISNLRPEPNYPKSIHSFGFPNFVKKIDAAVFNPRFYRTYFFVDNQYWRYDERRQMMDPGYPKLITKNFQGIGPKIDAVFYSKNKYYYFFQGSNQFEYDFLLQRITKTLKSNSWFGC
The series can be described thus: MMP enzyme activity assay. The class given is biochemical. The note with it: read-out: MMP Inhibitory Activity (IC50), MMP‐12. The method, then: […]. Protease stock solutions (10 mmol/L) were diluted with assay buffer to make final test solutions containing no more than 2.0% DMSO. The samples were dispensed into plates; substrate was added and read with PHERAstar PLUS (BMG Labtech, Ortenberg, Germany) plate reader.

These results are taken from publication PMC5669199, “CM352 Reduces Brain Damage and Improves Functional Recovery in a Rat Model of Intracerebral Hemorrhage” (Journal of the American Heart Association: Cardiovascular …, 2017).

On to `NC[C@H]1CC[C@H](C(=O)O)CC1` [TXA, tranexamic acid], for which the effect on edema result in series [1] was “exacerbates edema”.
Consider `CNC(=O)[C@H](Cc1c[nH]c2ccccc12)NC(=O)[C@@H](CC(=O)NO)CC(C)C` [GM6001], for which the “lesion volume and neurological outcome” value in series [2] is “decrease in lesion volume and improved neurological outcome”. Moreover, the IC50 in the series with MMP‐10 is […]; against MMP‐7, 9 nM; in the series on MMP‐3, 20.7 nM; at MMP‐12, 1.2 nM.
